These results are taken from patent publication US9051290B2, “Biaryl phosphodiesterase inhibitors” (LEO PHARMA A/S, priority 2010, dated 2015).

SMILES strings stand for the structures. A value given as a limit tells only on which side of the number the result lay.

This test deals with Human recombinant PDE4 (Genbank accession no NM—006203) (Homo sapiens, UniProt Q08499). Put plainly: PDE4 assay (SPA, cleavage of cAMP). The format is biochemical. The note with it: 1 hour incubation, test compound up to 10 μM, cAMP 1×10^−5M, read-out: PDE4 IC50 range. On the procedure: Human recombinant PDE4 (Genbank accession no NM_006203) was incubated for 1 hour with the test compound at concentrations up to 10 μM, with cAMP (1×10^−5M), and with a low amount (0.021 MBq) of radioactively labelled cAMP. At the end of the incubation, the cleavage of the substrate was evaluated by the binding of the AMP product to SPA beads, which generate chemoluminescence when bound to the radioactive tracer. The AMP product inhibited the binding of the radioactive tracer to the beads, and the luminescent signal was competed.
Chain of Human recombinant PDE4 (Genbank accession no NM—006203) (Q08499 1-673 isoform Q08499-2): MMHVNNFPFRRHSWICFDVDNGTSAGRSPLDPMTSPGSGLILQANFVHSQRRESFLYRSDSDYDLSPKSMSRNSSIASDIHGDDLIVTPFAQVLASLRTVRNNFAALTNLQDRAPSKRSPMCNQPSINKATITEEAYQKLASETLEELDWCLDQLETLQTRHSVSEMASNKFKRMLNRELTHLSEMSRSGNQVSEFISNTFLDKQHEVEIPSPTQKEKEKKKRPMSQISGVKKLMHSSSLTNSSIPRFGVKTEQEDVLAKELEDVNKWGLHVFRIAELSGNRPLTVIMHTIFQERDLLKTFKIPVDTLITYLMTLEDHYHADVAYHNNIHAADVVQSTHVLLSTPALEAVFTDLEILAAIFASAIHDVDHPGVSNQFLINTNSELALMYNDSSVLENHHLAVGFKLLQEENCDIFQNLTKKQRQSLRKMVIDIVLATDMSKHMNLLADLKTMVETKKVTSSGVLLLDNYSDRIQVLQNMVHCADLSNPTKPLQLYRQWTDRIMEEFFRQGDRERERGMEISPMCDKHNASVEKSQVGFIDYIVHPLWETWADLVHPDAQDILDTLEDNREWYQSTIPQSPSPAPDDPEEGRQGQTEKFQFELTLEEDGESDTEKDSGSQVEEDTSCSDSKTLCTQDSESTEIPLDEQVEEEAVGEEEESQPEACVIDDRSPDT
The results were calculated as the molar concentrations resulting in 50% inhibition of the substrate cleavage compared to controls samples, and are expressed as a range of IC50 (M).
The compounds of the present invention were tested in the PDE4 assay.
One may read the IC50 as the concentration at which inhibition is half-maximal. On to `COCC1(COc2c(-c3cccc4c3CCC4=O)ccc(OC)c2OC)CC1` [Compound 178, 4-[3,4-Dimethoxy-2-(1-methoxymethyl-cyclopropylmethoxy)-phenyl]-indan-1-one], for which the IC50 was less than 100 nM. For `CCNC(=O)OCC1(COc2c(-c3cccc4c3CCC4=O)ccc(OC)c2OC)CC1` [Compound 179, Ethyl-carbamic acid 1-[2,3-dimethoxy-6-(1-oxo-indan-4-yl)-phenoxymethyl]-cyclopropylmethyl ester] the value was less than 100 nM.

For `COc1ccc(-c2cccc3c2CCC3=O)c(OCC2(COC(=O)NC(C)C)CC2)c1OC` [Compound 180, Isopropyl-carbamic acid 1-[2,3-dimethoxy-6-(1-oxo-indan-4-yl)-phenoxymethyl]-cyclopropylmethyl ester], the half-maximal inhibitory concentration (IC50) is less than 100 nM. Under `COc1ccc(-c2cccc3c2CCC3=O)c(OCC2(COC(=O)NCc3ccccc3)CC2)c1OC` [Compound 181, Benzyl-carbamic acid 1-[2,3-dimethoxy-6-(1-oxo-indan-4-yl)-phenoxymethyl]-cyclopropylmethyl ester] stands less than 100 nM. For `COc1ccc(-c2cccc3c2CCC3=O)c(OCC2(CNC(=O)C(C)C)CC2)c1OC` [Compound 183] the value was less than 100 nM. For `CCCC(=O)NCC1(COc2c(-c3cccc4c3CCC4=O)ccc(OC)c2OC)CC1` [Compound 184, N-{1-[2,3-Dimethoxy-6-(1-oxo-indan-4-yl)-phenoxymethyl]-cyclopropylmethyl}-butyramide] the value was less than 100 nM; for `COc1ccc(-c2cccc3c2CCC3=O)c(OCC2(CNC(C)=O)CC2)c1OC` [Compound 185, N-{1-[2,3-Dimethoxy-6-(1-oxo-indan-4-yl)-phenoxymethyl]-cyclopropylmethyl}-acetamide], less than 100 nM.

Consider `CCOC(=O)NCC1(COc2c(-c3cccc4c3CCC4=O)ccc(OC)c2OC)CC1` [Compound 186, {1-[2,3-Dimethoxy-6-(1-oxo-indan-4-yl)-phenoxymethyl]-cyclopropylmethyl}-carbamic Acid Ethyl Ester], for which the IC50 was less than 100 nM. Under `COc1ccc(-c2cccc3c2CCC3=O)c(OCC2(CNC(=O)OC(C)C)CC2)c1OC` [Compound 187, {1-[2,3-Dimethoxy-6-(1-oxo-indan-4-yl)-phenoxymethyl]-cyclopropylmethyl}-carbamic Acid Isopropyl Ester] stands less than 100 nM.

For `COCCOC(=O)NCC1(COc2c(-c3cccc4c3CCC4=O)ccc(OC)c2OC)CC1` [Compound 188, {1-[2,3-Dimethoxy-6-(1-oxo-indan-4-yl)-phenoxymethyl]-cyclopropylmethyl}-carbamic acid 2-methoxy-ethyl Ester], the IC50 is less than 100 nM. For `CCNC(=O)OCC1(COc2c(-c3cccc4c3CCC4=O)ccc(OC)c2OC)COC1` [Compound 189, Ethyl-carbamic acid 3-[2,3-dimethoxy-6-(1-oxo-indan-4-yl)-phenoxymethyl]-oxetan-3-ylmethyl ester], the half-maximal inhibitory concentration (IC50) is less than 100 nM.

`COCC1(COc2c(-c3cccc4c3CCC4=O)ccc(OC)c2OC)COC1` [Compound 190, 4-[3,4-Dimethoxy-2-(3-methoxymethyl-oxetan-3-ylmethoxy)-phenyl]-indan-1-one]: the IC50 was less than 100 nM. For `COc1ccc(-c2cccc3c2CCC3=O)c(OCC2(CNC(C)=O)COC2)c1OC` [Compound 192, N-{3-[2,3-Dimethoxy-6-(1-oxo-indan-4-yl)-phenoxymethyl]-oxetan-3-ylmethyl}-acetamide] the value was less than 100 nM; for `COc1ccc(-c2cccc3c2CCC3=O)c(OCC2(CNC(=O)C(C)C)COC2)c1OC` [Compound 193, N-{3-[2,3-Dimethoxy-6-(1-oxo-indan-4-yl)-phenoxymethyl]-oxetan-3-ylmethyl}-isobutyramide], less than 100 nM; for `CCCC(=O)NCC1(COc2c(-c3cccc4c3CCC4=O)ccc(OC)c2OC)COC1` [Compound 194, N-{3-[2,3-Dimethoxy-6-(1-oxo-indan-4-yl)-phenoxymethyl]-oxetan-3-ylmethyl}-butyramide], less than 100 nM.

With `COCC(=O)NCC1(COc2c(-c3cccc4c3CCC4=O)ccc(OC)c2OC)COC1` [Compound 195, N-{3-[2,3-Dimethoxy-6-(1-oxo-indan-4-yl)-phenoxymethyl]-oxetan-3-ylmethyl}-2-methoxy-acetamide], the IC50 is less than 100 nM. Regarding `CCOC(=O)NCC1(COc2c(-c3cccc4c3CCC4=O)ccc(OC)c2OC)COC1` [Compound 196, {3-[2,3-Dimethoxy-6-(1-oxo-indan-4-yl)-phenoxymethyl]-oxetan-3-ylmethyl}-carbamic acid ethyl ester], the half-inhibitory concentration (IC50) was less than 100 nM. Under `COc1ccc(-c2cccc3c2CCC3=O)c(OCC2(CNC(=O)OC(C)C)COC2)c1OC` [Compound 197, {3-[2,3-Dimethoxy-6-(1-oxo-indan-4-yl)-phenoxymethyl]-oxetan-3-ylmethyl}-carbamic acid isopropyl ester] stands less than 100 nM; under `COCCOC(=O)NCC1(COc2c(-c3cccc4c3CCC4=O)ccc(OC)c2OC)COC1` [Compound 198, {3-[2,3-Dimethoxy-6-(1-oxo-indan-4-yl)-phenoxymethyl]-oxetan-3-ylmethyl}-carbamic acid 2-methoxy-ethyl ester], less than 100 nM. Turning to `CNC(=O)C(C)(C)COc1c(-c2cccc3c2CCC3=O)ccc(OC)c1OC` [Compound 200, 3-[2,3-Dimethoxy-6-(1-oxo-indan-4-yl)-phenoxy]-2,2,N-trimethyl-propionamide], the IC50 was less than 100 nM. For `CCNC(=O)C(C)(C)COc1c(-c2cccc3c2CCC3=O)ccc(OC)c1OC` [Compound 201, 3-[2,3-Dimethoxy-6-(1-oxo-indan-4-yl)-phenoxy]-N-ethyl-2,2-dimethyl-propionamide] the value was less than 100 nM; for `COc1ccc(-c2cccc3c2CCC3=O)c(OCC(C)(C)C(=O)N(C)C)c1OC` [Compound 202, 3-[2,3-Dimethoxy-6-(1-oxo-indan-4-yl)-phenoxy]-2,2,N,N-tetramethyl-propionamide], less than 100 nM; for `COc1ccc(-c2cccc3c2CCC3=O)c(OCC(C)(C)C(=O)NC2CC2)c1OC` [Compound 203, N-Cyclopropyl-3-[2,3-dimethoxy-6-(1-oxo-indan-4-yl)-phenoxy]-2,2-dimethyl-propionamide], less than 100 nM. Under `COc1ccc(-c2cccc3c2CCC3=O)c(OCC(C)(C)C(=O)N2CCOCC2)c1OC` [Compound 204, 4-[2-(2,2-Dimethyl-3-morpholin-4-yl-3-oxo-propoxy)-3,4-dimethoxy-phenyl]-indan-1-one] stands less than 100 nM. Under `CNC(=O)C(C)(C)COc1c(-c2ccc3c(c2)CCC3=O)ccc(OC)c1OC` [Compound 206, 3-[2,3-Dimethoxy-6-(1-oxo-indan-5-yl)-phenoxy]-2,2,N-trimethyl-propionamide] stands less than 100 nM. Regarding `COc1ccc(-c2ccc3c(c2)CCC3=O)c(OCC(C)(C)C(=O)N(C)C)c1OC` [Compound 207, 3-[2,3-Dimethoxy-6-(1-oxo-indan-5-yl)-phenoxy]-2,2,N,N-tetramethyl-propionamide], the half-maximal inhibitory concentration (IC50) fell in the range of 100 to 500 nM. Under `COc1ccc(-c2ccc3c(c2)CCC3=O)c(OCC(C)(C)C(=O)NC(C)C)c1OC` [Compound 208, 3-[2,3-Dimethoxy-6-(1-oxo-indan-5-yl)-phenoxy]-N-isopropyl-2,2-dimethyl-propionamide] stands not below 500 nM; under `CCCNC(=O)C(C)(C)COc1c(-c2ccc3c(c2)CCC3=O)ccc(OC)c1OC` [Compound 209, 3-[2,3-Dimethoxy-6-(1-oxo-indan-5-yl)-phenoxy]-2,2-dimethyl-N-propyl-propionamide], 100 to 500 nM. For `CCNC(=O)OCC(C)(C)COc1c(-c2ccc3c(c2)COC3=O)ccc(OC)c1OC` [Compound 210, Ethyl-carbamic acid 3-[2,3-dimethoxy-6-(1-oxo-1,3-dihydro-isobenzofuran-5-yl)-phenoxy]-2,2-dimethyl-propyl Ester] the value was less than 100 nM. For `CCNC(=O)OCC(C)(C)COc1c(-c2cccc3c2CCC3=O)ccc(OC)c1OC` [Compound 211, Ethyl-carbamic acid 3-[2,3-dimethoxy-6-(1-oxo-indan-4-yl)-phenoxy]-2,2-dimethyl-propyl ester] the value was less than 100 nM. In the case of `CCNC(=O)OCC(C)(C)COc1c(-c2ccc3c(c2)CNC3=O)ccc(OC)c1OC` [Compound 212, Ethyl-carbamic acid 3-[2,3-dimethoxy-6-(1-oxo-2,3-dihydro-1H-isoindol-5-yl)-phenoxy]-2,2-dimethyl-propyl ester], the 50% inhibitory concentration (IC50) is not below 500 nM. As for `CCNC(=O)OCC1(COc2c(-c3ccc4c(c3)COC4=O)ccc(OC)c2OC)COC1` [Compound 213, Ethyl-carbamic acid 3-[2,3-dimethoxy-6-(1-oxo-1,3-dihydro-isobenzofuran-5-yl)-phenoxymethyl]-oxetan-3-ylmethyl ester], the concentration for half-maximal inhibition (IC50) is less than 100 nM. Under `CCNC(=O)OCC1(COc2c(-c3ccc4c(c3)CNC4=O)ccc(OC)c2OC)COC1` [Compound 214, Ethyl-carbamic acid 3-[2,3-dimethoxy-6-(1-oxo-2,3-dihydro-1H-isoindol-5-yl)-phenoxymethyl]-oxetan-3-ylmethyl ester] stands not below 500 nM; under `COCC1(COc2c(-c3ccc4c(c3)COC4=O)ccc(OC)c2OC)COC1` [Compound 215, 5-[3,4-Dimethoxy-2-(3-methoxymethyl-oxetan-3-ylmethoxy)-phenyl]-3H-isobenzofuran-1-one], less than 100 nM; under `COCC1(COc2c(-c3ccc4c(c3)CNC4=O)ccc(OC)c2OC)COC1` [Compound 216, 5-[3,4-Dimethoxy-2-(3-methoxymethyl-oxetan-3-ylmethoxy)-phenyl]-2,3-dihydro-isoindol-1-one], less than 100 nM.
